# The NIST ThermoML archive (doi:10.1016/j.fluid.2012.08.024)
# Numbers after ± are expanded uncertainties.
# Key:
# [1] = refractive index (Na D-line) (dimensionless); mn = molality of the nth substance listed, in mol/kg; settings: 298.15 K, 101 kPa, Liquid, Standard Abbe refractometry
# [2] = mn = molality of the nth substance listed, in mol/kg; settings: 298.15 K, 101 kPa, Liquid; for mass density: Vibrating tube method; for molar conductivity: Alternating current cell with electrodes
smiles,measurement,setting,value
O=C[C@H](O)[C@@H](O)[C@H](O)[C@H](O)CO [D-glucose] + O,refractive index,[1]; m1 = 0.0104,1.3328 ± 0.0004
same,refractive index,[1]; m1 = 0.03,1.3334 ± 0.0004
same,refractive index,[1]; m1 = 0.05,1.3339 ± 0.0004
same,refractive index,[1]; m1 = 0.0705,1.3343 ± 0.0004
same,refractive index,[1]; m1 = 0.0899,1.3349 ± 0.0004
same,refractive index,[1]; m1 = 0.1102,1.3352 ± 0.0004
same,refractive index,[1]; m1 = 0.1301,1.3357 ± 0.0004
same,refractive index,[1]; m1 = 0.1496,1.3361 ± 0.0004
same,refractive index,[1]; m1 = 0.1691,1.3366 ± 0.0004
same,mass density,[2]; m1 = 0.0104,997.75 ± 0.29 kg/m3
same,mass density,[2]; m1 = 0.03,999.09 ± 0.29 kg/m3
same,mass density,[2]; m1 = 0.05,1000.45 ± 0.29 kg/m3
same,mass density,[2]; m1 = 0.0705,1001.83 ± 0.29 kg/m3
same,mass density,[2]; m1 = 0.0899,1003.13 ± 0.29 kg/m3
same,mass density,[2]; m1 = 0.1102,1004.48 ± 0.3 kg/m3
CCCCCCn1cc[n+](C)c1.[Br-] [3-hexyl-1-methyl-1H-imidazolium bromide] + O,molar conductivity,[2]; m1 = 0.3716,0.01169 ± 4.2e-05 S·m2/mol
same,molar conductivity,[2]; m1 = 0.9047,0.01149 ± 4.2e-05 S·m2/mol
same,molar conductivity,[2]; m1 = 1.268,0.01134 ± 4.2e-05 S·m2/mol
same,molar conductivity,[2]; m1 = 1.963,0.01117 ± 4.2e-05 S·m2/mol
same,molar conductivity,[2]; m1 = 2.512,0.01099 ± 4.2e-05 S·m2/mol
same,molar conductivity,[2]; m1 = 3.102,0.01085 ± 4.2e-05 S·m2/mol
same,molar conductivity,[2]; m1 = 3.708,0.01072 ± 4.2e-05 S·m2/mol
same,molar conductivity,[2]; m1 = 4.273,0.01055 ± 4.2e-05 S·m2/mol
same,molar conductivity,[2]; m1 = 4.944,0.01044 ± 4.2e-05 S·m2/mol
same,molar conductivity,[2]; m1 = 5.55,0.01034 ± 4.2e-05 S·m2/mol
same,mass density,[2]; m1 = 0.1017,1001.8 ± 0.29 kg/m3
same,mass density,[2]; m1 = 0.2038,1006.13 ± 0.3 kg/m3
same,mass density,[2]; m1 = 0.3005,1010.26 ± 0.3 kg/m3
same,mass density,[2]; m1 = 0.4033,1014.58 ± 0.31 kg/m3
